Measurements taken from US11795378B2, “Iron control composition, make, and use in carbonate stimulation” (King Fahd University of Petroleum and Minerals, priority 2019, dated 2023).

Key:
[1] = 5% chelating agent, 3000 ppm ferric ions; cited from earlier work
[2] = Solubility and stability test of iron in concentrated HCl chelating agent formulations; assay type: physicochemical; conditions: 5 wt. % single chelating agent, 72° F. (22.2° C.)
Method: The solubility test was conducted at varying HCl and chelating agent concentrations. During the solubility test the concentration of HCl was set to either 20 wt. % (low) or 28 wt. % (high) concentration.
Each chelating agent was used alone with varied concentrations ranging from 1 to 10 wt %.
To the evaluate the capability of the generated formulation to sustain the iron in the solution without precipitation, 3000 ppm of iron was dissolved in the respective formulations, and, after that, the stability of the formulation as function of time was evaluated.
The effect of the pH on the performance of exemplary inventive formulations was evaluated by repeating the solubility and stability tests at varied pH values.

[3] = 20 wt. % HCl, 3000 ppm iron, 96 hours
[4] = 28 wt. % HCl at pH 5, 3000 ppm ferric ions, after 96 hours

Row | Structure (SMILES) | pH up to which ferric ions are kept in solution [1] | iron precipitation during stability evaluation [2, 3] | iron precipitation during stability evaluation [2, 4]
1 | O=C(O)CC[C@@H](C(=O)O)N(CC(=O)O)CC(=O)O [GLDA, glutamic acid N,N-diacetic acid] | less than 3.0 | no precipitation | precipitation
2 | O=C(O)CN(CCO)CCN(CC(=O)O)CC(=O)O [HEDTA, hydroxyethyl ethylenediamine triacetic acid] | – | no precipitation | precipitation
